In patent US20130090320A1, “METHOD OF TREATING PROSTATE CANCER” (NIIKI PHARMA INC., priority 2010, published 2013):

Assays:
LNCaP cell line [1] = conditions: Domingo-Domenech et al., Clin. Cancer Res. 2006; cited from earlier work
LNCaP cell line [2] = assay: Docetaxel IC50 in LNCaP from published literature; type: cell-based, human; conditions: ratio of literature docetaxel IC50 in LNCaP to IC50 in PC-3
Method: In addition, the IC50 values of docetaxel in the LNCaP and PC-3 cell lines were obtained from published literature. The ratios of IC50 values of sodium trans-[tetrachlorobis(1H-indazole)ruthenate(III)] in a cell line sensitive to one of the other drugs and a cell line insensitive to the same drug were calculated. The results are shown in Table 1 below (“Test Drug” in the table denotes sodium trans-[tetrachlorobis(1H-indazole)ruthenate(III)]). […] See Domingo-Domenech et al., Clin. Cancer Res., 12(18):5578-5586 (2006); Blagosklonny et al., J. Urol. 163(3):1022-6 (2000). As such, sodium trans-[tetrachlorobis(1H-indazole)ruthenate(III)] is potentially effective in treating prostate cancer resistant to such other drugs.

PC-3 cell line = conditions: Domingo-Domenech et al., Clin. Cancer Res. 2006; cited from earlier work
[3] = system: PC-3 (Prostate carcinoma); conditions: PC-3 cell line, MTT, 72 hours post-treatment
Method: (§1) To test the activities of sodium trans-[tetrachlorobis(1H-indazole)ruthenate(III)], ATCC's MTT Cell Proliferation Assay® was performed using human prostate cancer cell lines LNCaP clone FGC (prostate carcinoma) and PC-3 (Prostate carcinoma). Stock cultures were allowed to grow to 70-80% confluence for this study. The anti-proliferative activity of sodium trans-[tetrachlorobis(1H-indazole)[…]], against the indicated cell lines was evaluated in vitro using the ATCC's MTT Cell Proliferation Assay (Catalog No. 30-1010K). LNCaP clone FGC plates were seeded with 4,000 cells/well, and the cells were grown in RPMI 1640 medium containing 1% HEPES (1M solution), 1% sodium pyruvate, 1% glucose (45% solution), 10% heat-inactivated FBS and 1% penicillin/strep/glutamine. PC-3 plates were seeded with 6,000 cells/well, and the cells were grown in Ham's F12 medium containing 10% heat-inactivated FBS, and 1% penicillin/strep/glutamine. Cultures were maintained in a 37° C. humidified 5% CO2/95% air atmosphere. The cells were treated with sodium trans-[tetrachlorobis(1H-indazole)ruthenate(III)] at 1,000 μM, or a series of 4× dilutions thereof (250 μM, 62.5 μM, etc.). 100 μl of medium was removed from each well at 72 hours post-treatment and 10 μl MTT reagent was added to each well. […] The plates were left overnight at room temperature in the dark and was read on a plate reader using SoftMax® Pro (version 5.2, Molecular Devices).
(§2) The absorbance data was analyzed as follows: Absorbance values were converted to Percent of Control and plotted against test agent concentrations for IC50 calculations using SoftMax® Pro (version 5.2, Molecular Devices). […] Percent of Control values were calculated by dividing the absorbance values for each test well by the No Drug Control average (column 11 values; cells+vehicle control) and multiplying by 100. Plots of Compound Concentration versus Percent of Control were analyzed using the 4-parameter equation to obtain IC50 values and other parameters that describe the sigmoidal dose response curve. […]

[4] = system: LNCaP clone FGC (prostate carcinoma)
Method: as §1, §2

## CC(=O)O[C@@]12CO[C@@H]1C[C@H](O)[C@@]1(C)C(=O)[C@H](O)C3=C(C)[C@@H](OC(=O)[C@H](O)[C@@H](NC(=O)OC(C)(C)C)c4ccccc4)C[C@@](O)([C@@H](OC(=O)c4ccccc4)[C@H]21)C3(C)C [Docetaxel, docetaxel]
LNCaP cell line [1]
  IC50: 50 to 60 nM
LNCaP cell line [2]
  IC50 Ratio (LNCaP/PC-3): 12-20
PC-3 cell line
  IC50: 2.5 to 5 nM

## [Cl][Ru-]([Cl])([Cl])[Cl].[Na+].c1ccc2[nH]ncc2c1.c1ccc2[nH]ncc2c1 [sodium trans-[tetrachlorobis(1H-indazole)ruthenate(III)]]
[3]
  IC50: 41.8 µM
[4]; LNCaP cell line, MTT, 72 hours post-treatment
  IC50: 17.3 µM
[4]; ratio of Test Drug IC50 in LNCaP to IC50 in PC-3
  IC50 Ratio (LNCaP/PC-3): 0.41
